From the supplement of paper PMC7801607

Legend:
[1] = tested on: Plasmodium falciparum Dd2 asexual blood stage
[2] = tested on: Plasmodium falciparum NF54 asexual blood stage
[3] = tested on: Plasmodium falciparum NF54 stage IV/V gametocytes
Method: (§1)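 Dose-response IC50s: P. falciparum NF54 asexual (pLDH, 72 h; 6 means >6 µM), Dd2 asexual (SYBR Green I, 72 h, 1536-well; 5 means >5 µM), NF54 stage IV/V gametocytes (luciferase 48 h, ATP 24 h, PrestoBlue 48 h), P. berghei liver stage in HepG2-A16-CD81 (luciferase, 48 h; 5 means >5 µM), HepG2 CC50 (CellTiter-Glo; 5 means >5 µM).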

[4] = tested on: Plasmodium berghei ANKA liver stage in HepG2-A16-CD81
HepG2-A16-CD81 = assay: CC50; higher = less toxic
Method: as §1

SMILES	IC50 [1] [µM]	IC50 [2] [µM]	IC50 (ATP bioluminescence) [3] [µM]	IC50 [4] [µM]	CC50 (HepG2-A16-CD81) [µM]
C=C[C@]1(C)C[C@@H](OC(=O)CS[C@@H]2C[C@H]3CC[C@@H](C2)N3C)[C@]2(C)[C@H](C)CC[C@]3(CCC(=O)[C@H]32)[C@@H](C)[C@@H]1O	> 5	> 6	–	–	–
Nc1cnn(C2OC(CO)C(O)C2O)c(=O)n1 (configuration not stated)	> 5	> 6	–	–	–
Cc1c(OCC(F)(F)F)ccnc1CS(=O)c1nc2ccccc2[nH]1 (configuration not stated)	> 5	> 6	–	–	–
COc1cc(NS(=O)(=O)c2ccc(C)cc2)c2ncccc2c1	> 5	–	2.75	–	–
CCCCCc1ccc(C(=O)NCCn2cc(CCCCCc3cnc(N)[nH]3)nn2)cc1	> 5	> 6	–	–	–
CCC(C)(C)c1ccc(CC(C)CN2C[C@@H](C)O[C@@H](C)C2)cc1 (some centres not stated)	> 5	2.11	–	–	–
O=C(Nc1nnc(-c2ccc(Cl)cc2)o1)c1nc2ccccc2s1	> 5	> 6	–	–	–
CCc1nc(N)nc(N)c1C#CCc1ccccc1	> 5	0.703	–	–	–
CCC[C@@H]1C[C@@H](C(=O)N[C@@H]([C@H]2O[C@H](SC)[C@H](O)[C@@H](O)[C@H]2O)[C@H](C)Cl)N(C)C1	> 5	> 6	–	–	–
COc1ccc(SC(=O)N[C@H](CCC(=O)O)C(=O)O)cc1	> 5	> 6	–	–	–
C[Si]1(C)CCN(Cc2cc(-c3ccc(Cl)cc3)n(-c3ccc(Cl)cc3)n2)CC1	–	> 6	1.29	–	–
O=C(NCc1ccc(F)cc1)c1c(O)c2ncccc2[nH]c1=O	> 5	> 6	–	–	–
Cc1ccc(NC(=O)c2cc(Cl)ccc2O)cc1	> 5	> 6	–	–	–
COc1ccc2nc(-c3ccccc3)cc(O)c2c1	1.01	1.78	–	–	–
O=C(Nc1ccc(N2CCN(C(=O)c3ccccc3)CC2)cc1)c1ccc2c(c1)OCO2	> 5	> 6	–	–	–
Cn1cncc1[C@@](N)(c1ccc(Cl)cc1)c1ccc2c(c1)c(-c1cccc(Cl)c1)cc(=O)n2C	> 5	3.65	–	–	–
Nc1cc(N)c2nc(-c3ccccc3)c(Nc3ccc(F)cc3)nc2c1	4.09	2.16	–	–	–
CC(C)(C)NC(=O)[C@@H]1CN(Cc2cnc3occc3c2)CCN1C[C@@H](O)C[C@@H](Cc1ccccc1)C(=O)N[C@H]1c2ccccc2C[C@H]1O	2.29	2.85	–	–	–
COc1ccc(CNC(=O)C2CCN([C@H](C)c3cccc4ccccc34)CC2)cc1	> 5	> 6	–	–	–
CC(C)c1ccc(COc2cccc(-c3cc(S(C)=O)c(C#N)c(=O)[nH]3)c2)cc1 (configuration not stated)	> 5	–	0.95	–	–
Fc1ccc2c(/C=C/c3cccnc3)c[nH]c2c1	1.01	–	–	> 5	> 5
C=CCN(C(=O)OCc1ccc([N+](=O)[O-])cc1)C1CCN(CC[C@](C)(CN(C)S(=O)(=O)c2ccccc2)c2ccccc2)CC1	> 5	> 6	–	–	–
OC1O[C@H](CSc2ccc(F)cc2)[C@@H](O)[C@H]1O (some centres not stated)	> 5	0.825	–	–	–
CC1CCc2c(N3CCC(O)CC3)c(F)cc3c(=O)c(C(=O)O)cn1c23 (configuration not stated)	> 5	> 6	–	–	–
COc1ccc2cc3[n+](cc2c1OCCN(CCn1cncn1)Cc1ccc(F)cc1F)CCc1cc2c(cc1-3)OCO2	> 5	0.138	–	–	–

SMILES	IC50 [1] [µM]	IC50 [2] [µM]	IC50 (ATP bioluminescence) [3] [µM]	IC50 [4] [µM]	CC50 (HepG2-A16-CD81) [µM]
Clc1ccc(Cn2c(CN3CCCC3)nc3ccccc32)cc1	> 5	–	5.86	–	–
CC(C)=CCC/C(C)=C/CNCCNC1C2CC3CC(C2)CC1C3 (configuration not stated)	> 5	–	0.474	–	–
Cc1ccc(S(=O)(=O)Nc2cccc3cccnc23)cc1	> 5	5.1	–	–	–
CCCCc1ccc(C(=O)O)nc1	> 5	> 6	–	–	–
CCc1cc(O)c(Oc2ccc(C(N)=O)cc2F)cc1F	> 5	5.84	–	–	–
Nc1nc(F)nc2c1ncn2[C@H]1O[C@@H](CO)[C@H](O)[C@@H]1O	> 5	2.3	–	–	–
CCOc1noc2cc(OCCC3CCN(c4ccc(C)nn4)CC3)ccc12	> 5	> 6	–	–	–
CN(C)CCCNC(=O)c1ccc(-c2cc(O)c3ncccc3c2)cc1	> 5	> 6	0.62	–	–
Nc1c(C(=O)NCc2ccco2)c2nc3ccccc3nc2n1CCN1CCCCC1	> 5	> 6	3.16	–	–
COc1ccc(CNC(=O)C(NS(=O)(=O)c2ccc3nc(C)sc3c2)C(C)C)cc1 (configuration not stated)	> 5	> 6	–	–	–
Cc1ccc(NC(=O)c2ccc(CN3CCN(C)CC3)cc2)cc1Nc1nccc(-c2cccnc2)n1	> 5	2.55	–	–	–
CN(C)[C@@H]1C(=O)C(C(N)=O)=C(O)[C@@]2(O)C(=O)C3=C(O)c4c(O)c(NC(=O)CN5CCCC5)cc(F)c4C[C@H]3C[C@@H]12	> 5	1.5	–	–	–
CC1CN(c2ncnc3c2c(-c2ccccc2)cn3-c2ccc(F)cc2)CC(C)O1 (configuration not stated)	> 5	1.58	–	–	–
Cc1oncc1C(=O)Nc1ccc(C(F)(F)F)cc1	> 5	> 6	–	–	–
O=[N+]([O-])c1ccc2c(CCc3c[nH]c4ccccc34)c[nH]c2c1	> 5	0.687	–	–	–
CC(C)Oc1ccc(-c2nc(-c3cccc4c3CC[C@@H]4NCCO)no2)cc1C#N	3.66	> 6	2.13	–	–
O=C(Nc1nnc(-c2ccccc2)o1)c1ccc(F)cc1	> 5	0.472	–	–	–
C[C@@H](NC(=O)c1cccc(-c2c[nH]c(-c3cc4ccccc4cn3)n2)c1)c1ccc(F)cc1	> 5	–	1.1	–	–
NC1C2CC3CC(C2)CC1C3 (configuration not stated)	> 5	5.7	–	–	–
O=C(c1ccccc1)N1CCN(c2ccccc2NC(=O)C(Cl)(Cl)Cl)CC1	> 5	2.12	–	–	–
Fc1ccc(-c2nc(-c3c[nH]c4ccc(Br)cc34)[nH]c2-c2ccc(F)cc2)cc1	4.99	0.765	–	–	–
CC(C)Nc1nc2cc(Cl)c(Cl)cc2n1[C@H]1O[C@@H](CO)[C@H](O)[C@@H]1O	> 5	> 6	–	–	–
NCC(=O)Nc1ccc(-n2nc(C(F)(F)F)cc2-c2ccc3c(ccc4ccccc43)c2)cc1	> 5	–	1.2	–	–
COc1ccc2sc3c(c2c1)NC(C)CNC3=O (configuration not stated)	> 5	–	–	–	–
Fc1ccc2c(/C=C/c3nnn[nH]3)c[nH]c2c1	> 5	–	–	–	–

SMILES	IC50 [1] [µM]	IC50 [2] [µM]	IC50 (ATP bioluminescence) [3] [µM]	IC50 [4] [µM]	CC50 (HepG2-A16-CD81) [µM]
O=C(O)CSc1cc(NS(=O)(=O)c2cccc3cccnc23)c2ccccc2c1O	> 5	2.57	–	–	–
CC1(C)[C@H](C(=O)O)N2C(=O)C[C@H]2S1(=O)=O	> 5	–	–	–	–
CCc1cc(Nc2cc(=O)n(CCN3CCN(C(=O)c4ccccc4)CC3)c(=O)[nH]2)ccc1C	> 5	–	–	–	–
CC(C)Cn1c(=O)n(C)c(=O)c2c(-c3cncn3C)n(Cc3cccc4ccccc34)nc21	> 5	> 6	–	–	–
O=S(=O)(Nc1ccccc1)c1ccc(NC(=S)Nc2ccccc2)cc1	> 5	–	–	–	–
CCc1nc2ccc(Cl)cn2c1C(=O)NCc1ccc(N2CCC(c3ccc(OC(F)(F)F)cc3)CC2)cc1	> 5	–	–	–	–
CCCCc1ccc(S(=O)(=O)Nc2cc(C)on2)cc1	> 5	> 6	–	–	–
O=C(c1ccc(F)cc1)N1CCN2C(=O)c3ccccc3C12c1ccccc1 (configuration not stated)	> 5	–	–	–	–
Cc1cc(NS(=O)(=O)c2ccc(-c3ccc(F)cc3F)cc2)no1	> 5	–	–	–	–
CCOCc1nc2c(N)nc3ccccc3c2n1CC(C)(C)O	> 5	> 6	–	–	–
Nc1nc(-c2ccccc2)nc2[nH]nc(Nc3ccc(C(F)(F)F)cc3)c12	4.1	–	–	–	–
COc1ccc(C)cc1NC(=O)c1ccc(S(=O)(=O)N2CCCCC2)cc1	> 5	–	–	–	–
COc1c(NC(=O)[C@H]2CC[C@@H](COc3ccc([N+](=O)[O-])cc3)CC2)c(F)cc2c(=O)c(C(=O)O)cn(C3CC3)c12	> 5	–	–	–	–
C[C@H](Cn1cnc2c(N)ncnc21)OCP(=O)(O)O	> 5	–	–	–	–
O=c1cc(OCc2ccccc2)ccn1Cc1ccccc1	> 5	–	–	–	–
O=C(NC1CCCc2c1[nH]c1ccc(Cl)cc21)c1ccccn1 (configuration not stated)	> 5	–	–	–	–
COc1ccc(OCc2ccc(COc3c(Cl)cccc3Cl)cc2)c(Cl)c1	> 5	–	–	–	–
CCOC(=O)N1CCN(c2ccc(Cl)cc2)CC1	> 5	–	–	–	–
Oc1c(C(Nc2ccccn2)c2ccccc2)ccc2cccnc12 (configuration not stated)	> 5	5.04	–	–	–
Cc1[nH]c2ccccc2c1CC(=O)N[C@@H](Cc1ccccc1)C(=O)N(C)c1ccccc1	> 5	–	–	–	–
Cc1cccc(CC(=O)N[C@H]2CCOC2=O)c1	> 5	–	–	–	–
Nc1nnnn1CCOc1c2[nH]c3ccc(Cl)cc3c2cc2c1[nH]c1ccc(Cl)cc12	> 5	–	–	–	–
CC(C)Oc1ccc(-n2cnc3cc(/C=C\c4ccc(C(C)(C)O)cc4)ccc32)cc1	> 5	–	–	–	–
CC(C)(C)c1cc(C(=O)/C(C#N)=N/Nc2cccc(Cl)c2)no1	> 5	–	–	–	–
OC(Cn1cncn1)(Cn1cncn1)c1ccc(F)cc1F	> 5	–	–	–	–
